Assay results from patent US20140351963A1, “MiRNAs Useful to Reduce Lung Cancer Tumorigenesis and Chemotherapy Resistance and Related Compositions and Methods” (Ohio State Innovation Foundation, priority 2011, published 2014).

Legend:
Calu-1 cells [1] = test: Cell viability (MTS) and caspase 3/7 assays with gefitinib; type: cell-based, human; conditions: for Gefitinib sensitivity of transfected cells (caspase-3/7 and viability assays): Calu-1
Description: (§1) For detection of caspase 3/7 activity, cells were cultured in 96-well plates, in triplicate, treated with 5 μM, 10 μM or 15 μM gefitinig and analyzed using a Caspase-Glo 3/7 Assay kit (Promega) according to the manufacturer's instructions. Continuous variables are expressed as means±s.d. Cell viability was examined with 3-(4,5dimethylthiazol-2-yl)-2,5-dipheniltetrazolium bromide (MTS)-Cell Titer 96 AQueous One Solution Cell Proliferation Assay (Promega) according to the manufacturer's protocol. Metabolically active cells were detected by adding 20 μl of MTS to each well. After 1 h of incubation, the plates were analyzed in a Multilabel Counter (Bio-Rad Laboratories).

[2] = test system: miR-30b, miR-30c, miR-221 and miR-222; test: qRT-PCR of miRNA expression after drug treatment; type: cell-based, human; conditions: for miR-30b, miR-30c, miR-221 and miR-222 expression after gefitinib: 5 μM or 10 μM gefitinib; for miR-221, miR-222, miR-30b and miR-30c expression after gefitinib: 10 μM gefitinib, 24 h
Description: (§2) Real-time PCR was performed using a standard TaqMan PCR Kit protocol on an Applied Biosystems 7900HT Sequence Detection System (Applied Biosystems). The 10 pl PCR reaction included 0.67 pl RT product, 1 pl TaqMan Universal PCR Master Mix (Applied Biosystems), […]. The reactions were incubated in a 96-well plate at 95° C. for […], followed by 40 cycles of 95° C. for 15 s and 60° C. for 1 mM All reactions were run in triplicate. The threshold cycle (CT) is defined as the fractional cycle number at which the fluorescence passes the fixed threshold. The comparative CT method for relative quantization of gene expression (Applied Biosystems) was used to determine miRNA and genes expression levels. The y axis represents the 2^(−ΔCT), or the relative expression of the different miRs and genes. MiRs expression was calculated relative to U44 and U48 rRNA (for microRNAs) and to GAPDH (for genes). Experiments were carried out in triplicate for each data point, and data analysis was performed by using software (Bio-Rad).

miR-103 and miR-203 = test: qRT-PCR of miRNA expression after drug treatment; type: cell-based, human; conditions: Calu-1; 1 and 3 μM, 24, 48 and 72 h; P<0.05
Description: as §2

phosphorylated ERKs = test: Western blot of ERK phosphorylation after gefitinib; type: cell-based; conditions: 24 h; for Concentration of phosphorylated ERKs compared to untreated cells: 5 μM or 10 μM gefitinib; for ERKs phosphorylation after gefitinib: 5 or 10 μM gefitinib
Description: (§3) Total proteins from NSCLC were extracted with radioimmunoprecipitation assay (PIRA) buffer ([…], pH 7.5, 1% Triton, 0.1% SDS, 0.1% sodium deoxycholate and 1% Nonidet P40). Sample extract (50 μg) was resolved on 7.5-12% SDS-polyacriylamide gels (PAGS) using a mini-gel apparatus (Bio-Rad Laboratories) and transferred to Hybond-C extra nitrocellulose. Membranes were blocked for 1 h with 5% nonfat dry milk in Tris-buffered saline containing 0.05% Tween 20, incubated overnight with primary antibody, washed and incubated with secondary antibody, and visualized by chemiluminescence.
(§4) The following primary antibodies were used: Apaf-1, Snail, Slug (abcam), Src, Met, Dicer, Vimintin, E-cadherin, Zeb1, Zeb-2 (Santa Cruz), Bim, pErks, total Erks, pAkt, total Akt, GAPDH, Parp (cell signaling, Pkc-ε, (BD transduction lab), β-actin antibody, Fibronectin (Sigma). A secondary anti-rabbit or anti-mouse immunoglobulin G (IgG) antibody peroxidase conjugate (Chemicon) was used.

BIM and APAF-1 = test: Western blot of BIM and APAF-1 protein; type: cell-based, human; conditions: 24 h; for BIM and APAF-1 protein after gefitinib: 5 μM or 10 μM gefitinib; for APAF-1 and BIM expression after gefitinib: 5 or 10 μM gefitinib
Description: as §3, §4

PC9 cells = test: Cell viability (MTS) and caspase 3/7 assays with gefitinib; type: cell-based; conditions: PC9 EGFR mutant; even at low doses (0.1 μM), 24 h
Description: as §1

[3] = test system: miR-21, miR-29a, miR-29c and miR-100; test: qRT-PCR of miRNA expression after drug treatment; type: cell-based, human; conditions: 5 and 10 μM gefitinib
Description: as §2

NSCLCs = test: Transwell migration assay; type: cell-based; conditions: 24 h
Description: Transwell insert chambers with an 8-μm porous membrane (Greiner Bio One) were used for the assay. Cells were washed three times with PBS and added to the top chamber in serum-free medium. The bottom chamber was filled with medium containing 10% FBS. Cells were incubated for 24 h at 37° C. in a 5% CO2 humidified incubator. To quantify migrating cells, cells in the top chamber were removed by using a cotton-tipped swab, and the migrated cells were fixed in PBS, 25% glutaraldehyde and stained with crystal violet stain, visualized under a phase-contrast microscope and photographed. Crystalviolet-stained cells were then solubilized in acetic acid and methanol (1:1), and absorbance was measured at 595 nm.

AKT/ERKs pathways = test: Western blot of AKT/ERKs pathways after miRNA enforced expression; type: cell-based; conditions: A549; miRNA overexpression
Description: as §3, §4

PKC-ε and SRC = test: Western blot of PKC-ε and SRC protein; type: cell-based, human
Description: as §3, §4

[4] = test system: mesenchymal markers and E-cadherin; test: Expression of epithelial and mesenchymal markers (immunofluorescence, immunoblot, qRT-PCR); type: cell-based, human; conditions: Calu-1
Description: Cells were grown on Lab-Tek II CC2 chamber slides (Nunc), fixed with 4% paraformaldehyde and permeabilized with 0.2% Triton X-100/PBS before blocking with 10% sheep serum (Caltag Laboratories). All the primary antibodies were from Abcam. Secondary antibodies were goat antibodies to mouse or rabbit coupled to Alexa 488 (Invitrogen). F-actin was stained by using a phalloidin reagent (Invitrogen). Cell nuclei were visualized with DAPI (Sigma). Slides were mounted with SlowFade Gold Antifade reagent (Invitrogen).
as §3, §2

A549 cells [5] = test: A549 xenograft in nude mice with gefitinib treatment; type: in vivo; conditions: for Tumor growth: nude mice injected s.c. with stably infected A549 cells, 35 days; for Sensitivity to gefitinib-induced apoptosis in vivo: nude mice, stably infected A549 cells, gefitinib 200 mg/kg oral gavage, 2 weeks
Description: A549 cells were stably infected with a control miRNA, miR-103 and miR-203 or with control inhibitor of miRNA or a lentiviral inhibitor of miR-221 and miR-30c (SBI). We injected 5×10^6 viable cells subcutaneously into the right flanks of 6-week-old male nude mice (Charles River Breeding Laboratories). Treatment was started 7 d after tumor cell inoculation. […] Tumor size was assessed twice per week using a digital caliper. Tumor volumes were determined by measuring the length (1) and the width (w) of the tumor and calculating the volume (V=lw^2/2). We killed the mice 35 days after injection. Statistical significance between the control and treated mice was evaluated using a Student's t test. Mouse experiments were conducted after approval by the institutional animal care and use committee at Ohio State University.
A549 cells were stably infected with the Human pre-microRNA Expression Construct Lenti-miR expression plasmid containing the full-length miR-103, miR-203 or the anti-miR-221, miR-30c and the GFP gene under the control of two different promoters (System Biosciences). An empty vector was used as control. Pre-miRs expression and control constructs were packaged with pPACKH1 Lentivector Packaging Plasmid mix (System Biosciences) in a 293TN packaging cell line. Viruses were concentrated using PEGit Virus Precipitation Solution, and titers were analyzed using the UltraRapid Lentiviral Titer Kit (System Biosciences). Infected cells were selected by FACS analysis (FACScalibur; BD Bioscience). Infection efficiency >90% was verified by fluorescent microscopy and confirmed by real-time PCR for miRs expression.

Calu-1 cells [6] = test: Cell-cycle analysis by flow cytometry; type: cell-based, human
Description: (§5) For cell-cycle analysis, cells were plated in 6 cm dishes, transfected as indicated in the figures, trypsinized, washed in PBS, and fixed with ice-cold 70% ethanol while vortexing. Cells were rehydrated in PBS and stained 30 min at RT with propidium iodide ([…] PI, 0.5 mg/ml RNase in PBS) prior to flow-cytometric analysis. Every experiment was repeated 5 times independently, with two replicas for each sample.

A549 cells [7] = test: Cell-cycle analysis by flow cytometry; type: cell-based
Description: as §5

Dicer = test: Western blot of Dicer; type: cell-based; conditions: Calu-1
Description: as §3, §4

[8] = SU11274 treated Calu-1 cells exposed to different concentrations of gefitinib, 24 h

## Cc1[nH]c(/C=C2\C(=O)Nc3ccc(S(=O)(=O)N(C)c4cccc(Cl)c4)cc32)c(C)c1C(=O)N1CCN(C)CC1 [SU11274]
Calu-1 cells [1]; [8]
  Caspase-3/7 activity on exposure to gefitinib: increased
  Cell viability on exposure to gefitinib: decreased
[2]; Calu-1, 1 and 3 μM, 24, 48 and 72 h
  miR-30b/c and miR-221/miR-222 expression after SU11274: down-regulation
miR-103 and miR-203
  miR-103 and miR-203 expression after SU11274: increased

## COc1cc2ncnc(Nc3ccc(F)c(Cl)c3)c2cc1OCCCN1CCOCC1 [gefitinib]
Phosphorylated ERKs; HCC827
  Concentration of phosphorylated ERKs compared to untreated cells: markedly lower
Phosphorylated ERKs; HCC827GR
  ERKs phosphorylation after gefitinib: did not change
Phosphorylated ERKs; PC9
  Concentration of phosphorylated ERKs compared to untreated cells: markedly lower
Phosphorylated ERKs; PC9GR
  ERKs phosphorylation after gefitinib: did not change
BIM and APAF-1; HCC827
  BIM and APAF-1 protein after gefitinib: increased amounts
BIM and APAF-1; HCC827GR
  APAF-1 and BIM expression after gefitinib: did not change
BIM and APAF-1; PC9
  BIM and APAF-1 protein after gefitinib: increased amounts
BIM and APAF-1; PC9GR
  APAF-1 and BIM expression after gefitinib: did not change
PC9 cells
  Cell growth / viability relative to untreated controls: significantly inhibited
[2]; A549 gefitinib-resistant
  miR-30b, miR-30c, miR-221 and miR-222 expression after gefitinib: does not decrease
[2]; Calu-1 gefitinib-resistant
  miR-30b, miR-30c, miR-221 and miR-222 expression after gefitinib: does not decrease
[2]; HCC827
  miR-30b, miR-30c, miR-221 and miR-222 expression after gefitinib: downregulation
[2]; HCC827 GR
  miR-221, miR-222, miR-30b and miR-30c expression after gefitinib: did not decrease
[2]; PC9
  miR-30b, miR-30c, miR-221 and miR-222 expression after gefitinib: downregulation
[2]; PC9 GR
  miR-221, miR-222, miR-30b and miR-30c expression after gefitinib: did not decrease
[3]; HCC827
  miR-21, miR-29a, miR-29c and miR-100 expression after gefitinib: downregulated
[3]; HCC827 GR
  Downregulation of miR-21, miR-29a, miR-29c and miR-100 after gefitinib: not observed
[3]; PC9
  miR-21, miR-29a, miR-29c and miR-100 expression after gefitinib: downregulated
[3]; PC9 GR
  Downregulation of miR-21, miR-29a, miR-29c and miR-100 after gefitinib: not observed

## miR-103: synthetic miR-103 or lentiviral construct containing full-length miR-103; targets PKC-ε and Dicer (AGCAGCATTGTACAGGGCTATGA; listed as DNA, chemistry not given here)
NSCLCs
  Migration reduced compared to controls: about 60%
AKT/ERKs pathways
  Phosphorylation of AKT, GSK3β and the ERKs: reduced phosphorylation
Calu-1 cells [1]
  Gefitinib sensitivity of transfected cells (caspase-3/7 and viability assays): increased the sensitivity
PKC-ε and SRC
  Concentrations of PKC-ε and SRC protein after enforced miRNA expression: clearly reduced
[4]
  E-cadherin expression: increased
  Expression of mesenchymal markers: downregulation
A549 cells [5]
  Tumor growth: marked inhibition
  Sensitivity to gefitinib-induced apoptosis in vivo: increased sensitivity
Calu-1 cells [6]
  Cell cycle distribution (G1 fraction; S and G2-M phases): increased G1 cell fraction
A549 cells [7]
  Cell cycle distribution (G1 fraction; S and G2-M phases): increased G1 cell fraction
Dicer
  Dicer level: marked down-regulation

## miR-203: synthetic miR-203 or lentiviral construct containing full-length miR-203; targets SRC (CTAGTGGTCCTAAACATTTCAC; listed as DNA, chemistry not given here)
NSCLCs
  Migration reduced compared to controls: about 60%
AKT/ERKs pathways
  Phosphorylation of AKT, GSK3β and the ERKs: reduced phosphorylation
Calu-1 cells [1]
  Gefitinib sensitivity of transfected cells (caspase-3/7 and viability assays): increased the sensitivity
PKC-ε and SRC
  Concentrations of PKC-ε and SRC protein after enforced miRNA expression: clearly reduced
[4]
  E-cadherin expression: increased
  Expression of mesenchymal markers: downregulation
A549 cells [5]
  Tumor growth: marked inhibition
  Sensitivity to gefitinib-induced apoptosis in vivo: increased sensitivity
Calu-1 cells [6]
  Cell cycle distribution (G1 fraction; S and G2-M phases): increased G1 cell fraction
A549 cells [7]
  Cell cycle distribution (G1 fraction; S and G2-M phases): increased G1 cell fraction
